The values below come from patent publication US11447493B2 (Kinnate Biopharma Inc., priority 2018, dated 2022).

Holding throughout (test): Radiometric protein kinase assay (33PanQinase), Assay Condition A (thiol containing)
Common to all, as to assay type: biochemical

One assay addresses CDK12 wt/CycK (Homo sapiens (Human), UniProt Q9NYV4). The following applies: thiol containing (1.2 mM DTT), ATP 0.3 μM. Put shortly: (§1)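 Recombinant human kinases assayed radiometrically (33PanQinase) with 33P-ATP incorporation into substrate, 60 min at 30° C, thiol-containing buffer, 1% DMSO final. Ten concentrations from 1×10^−04M to 3×10^−09M tested in singlicate. Residual activity normalized to no-enzyme and no-inhibitor controls; IC50 by least-squares fit.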

The target in another assay is CDK2/CycA2 (Homo sapiens (Human), UniProt P24941). The following applies: thiol containing (1.2 mM DTT), ATP 0.3 μM. In a few lines:
as §1

A further assay has as its target CDK7/CycH/MAT1 (Homo sapiens (Human), UniProt P50613). The conditions noted are these: thiol containing (1.2 mM DTT), ATP 3.0 μM. Put shortly: as §1

CDK12 wt/CycK, sequence (Q9NYV4 whole entry): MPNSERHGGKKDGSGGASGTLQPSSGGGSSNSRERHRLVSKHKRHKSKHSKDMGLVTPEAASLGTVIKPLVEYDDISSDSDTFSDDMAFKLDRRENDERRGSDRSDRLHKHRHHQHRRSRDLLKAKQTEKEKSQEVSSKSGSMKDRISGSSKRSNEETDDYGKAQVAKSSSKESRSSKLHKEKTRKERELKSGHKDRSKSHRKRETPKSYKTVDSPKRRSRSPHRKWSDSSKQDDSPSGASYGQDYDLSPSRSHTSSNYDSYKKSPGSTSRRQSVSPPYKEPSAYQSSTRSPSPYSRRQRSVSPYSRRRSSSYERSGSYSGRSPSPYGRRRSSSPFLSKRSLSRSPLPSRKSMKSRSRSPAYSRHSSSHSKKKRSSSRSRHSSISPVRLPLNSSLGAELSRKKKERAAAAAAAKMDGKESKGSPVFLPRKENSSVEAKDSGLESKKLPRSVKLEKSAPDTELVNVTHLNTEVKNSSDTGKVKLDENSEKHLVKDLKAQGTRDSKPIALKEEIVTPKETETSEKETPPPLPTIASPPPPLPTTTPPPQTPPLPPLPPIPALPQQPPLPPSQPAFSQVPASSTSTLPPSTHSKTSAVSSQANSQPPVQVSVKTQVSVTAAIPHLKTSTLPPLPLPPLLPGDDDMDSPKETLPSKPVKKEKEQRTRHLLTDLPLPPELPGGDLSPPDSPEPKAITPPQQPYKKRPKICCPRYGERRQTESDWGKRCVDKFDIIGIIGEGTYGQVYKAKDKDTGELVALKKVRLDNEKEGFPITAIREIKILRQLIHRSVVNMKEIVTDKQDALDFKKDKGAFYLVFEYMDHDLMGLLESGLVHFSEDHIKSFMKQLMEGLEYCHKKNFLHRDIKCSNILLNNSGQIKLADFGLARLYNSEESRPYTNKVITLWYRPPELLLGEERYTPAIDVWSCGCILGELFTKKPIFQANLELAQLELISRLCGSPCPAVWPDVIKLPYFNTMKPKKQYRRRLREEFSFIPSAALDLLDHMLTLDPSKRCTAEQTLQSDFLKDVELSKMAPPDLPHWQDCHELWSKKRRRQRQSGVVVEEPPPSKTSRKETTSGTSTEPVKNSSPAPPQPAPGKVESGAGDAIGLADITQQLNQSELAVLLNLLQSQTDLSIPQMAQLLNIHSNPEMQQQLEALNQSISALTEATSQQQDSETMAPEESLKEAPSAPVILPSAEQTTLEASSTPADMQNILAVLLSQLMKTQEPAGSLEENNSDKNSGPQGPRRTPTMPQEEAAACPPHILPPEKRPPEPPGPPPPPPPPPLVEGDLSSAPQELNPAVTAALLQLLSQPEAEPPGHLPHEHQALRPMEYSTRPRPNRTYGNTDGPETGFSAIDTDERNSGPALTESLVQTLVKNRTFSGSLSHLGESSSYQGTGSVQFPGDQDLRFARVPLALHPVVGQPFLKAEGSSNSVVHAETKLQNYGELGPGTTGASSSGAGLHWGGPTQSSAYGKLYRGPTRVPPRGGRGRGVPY
CDK12 wt/CycK, sequence (O75909 whole entry partner): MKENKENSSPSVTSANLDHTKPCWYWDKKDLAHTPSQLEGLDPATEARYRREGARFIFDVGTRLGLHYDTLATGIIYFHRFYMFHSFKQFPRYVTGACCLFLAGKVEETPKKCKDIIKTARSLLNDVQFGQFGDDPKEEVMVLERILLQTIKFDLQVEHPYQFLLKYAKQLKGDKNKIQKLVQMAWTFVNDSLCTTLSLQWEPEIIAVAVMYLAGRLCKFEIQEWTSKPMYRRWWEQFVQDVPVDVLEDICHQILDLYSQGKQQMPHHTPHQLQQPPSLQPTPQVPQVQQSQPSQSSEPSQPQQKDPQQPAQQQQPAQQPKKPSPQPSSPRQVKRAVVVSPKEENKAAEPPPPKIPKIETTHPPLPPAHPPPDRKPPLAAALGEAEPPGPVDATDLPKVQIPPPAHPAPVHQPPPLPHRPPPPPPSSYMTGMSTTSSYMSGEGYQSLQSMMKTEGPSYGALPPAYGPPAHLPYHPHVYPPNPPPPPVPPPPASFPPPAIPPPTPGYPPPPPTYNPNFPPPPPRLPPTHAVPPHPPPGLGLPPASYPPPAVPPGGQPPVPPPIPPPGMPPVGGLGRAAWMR
CDK7/CycH/MAT1, sequence (P50613 whole entry): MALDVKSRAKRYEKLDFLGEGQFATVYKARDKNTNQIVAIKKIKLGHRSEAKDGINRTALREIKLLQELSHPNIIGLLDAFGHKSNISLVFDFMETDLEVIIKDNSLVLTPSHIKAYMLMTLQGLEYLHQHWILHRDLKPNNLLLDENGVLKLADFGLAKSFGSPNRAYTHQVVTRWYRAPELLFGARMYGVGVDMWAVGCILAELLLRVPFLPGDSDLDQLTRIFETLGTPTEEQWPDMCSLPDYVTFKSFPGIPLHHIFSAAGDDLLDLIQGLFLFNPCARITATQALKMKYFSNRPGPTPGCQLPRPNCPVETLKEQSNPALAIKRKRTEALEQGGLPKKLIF
CDK7/CycH/MAT1, sequence (P51946 whole entry partner): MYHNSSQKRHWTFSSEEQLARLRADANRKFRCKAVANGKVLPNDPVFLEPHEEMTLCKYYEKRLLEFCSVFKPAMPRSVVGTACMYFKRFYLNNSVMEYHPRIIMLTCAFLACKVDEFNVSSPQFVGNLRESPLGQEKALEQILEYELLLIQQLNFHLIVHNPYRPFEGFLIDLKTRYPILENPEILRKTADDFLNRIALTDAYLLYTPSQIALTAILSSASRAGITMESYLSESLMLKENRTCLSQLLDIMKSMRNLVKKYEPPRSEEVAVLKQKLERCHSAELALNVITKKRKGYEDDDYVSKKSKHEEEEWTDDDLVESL
CDK7/CycH/MAT1, sequence (P51948 whole entry partner): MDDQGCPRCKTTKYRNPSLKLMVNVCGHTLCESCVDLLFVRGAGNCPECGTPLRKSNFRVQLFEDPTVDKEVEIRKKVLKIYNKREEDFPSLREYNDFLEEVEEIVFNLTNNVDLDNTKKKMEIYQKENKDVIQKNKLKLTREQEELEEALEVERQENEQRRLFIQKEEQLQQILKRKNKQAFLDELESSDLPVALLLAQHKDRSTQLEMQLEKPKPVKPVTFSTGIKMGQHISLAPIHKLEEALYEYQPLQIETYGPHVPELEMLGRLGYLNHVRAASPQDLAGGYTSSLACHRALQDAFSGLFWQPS

`C=CC(=O)Nc1ccc(C(=O)N2CC[C@@H](Nc3ncc4ccc(C(=O)O)cc4n3)C2)cc1` [Example 38, (R)-2-((1-(4-acrylamidobenzoyl)pyrrolidin-3-yl)amino)quinazoline-7-carboxylic Acid]: the results for the concentration for half-maximal inhibition (IC50) against CDK12 wt/CycK, against CDK2/CycA2 and at CDK7/CycH/MAT1 were no more than 100 nM, no more than 100 nM and 100 to 1000 nM, respectively.
On to `CCC(=O)Nc1ccc(C(=O)N2CCC[C@@H](Nc3ncc4cc(Cl)ccc4n3)C2)cc1` [Example 19, (R)-N-(4-(3-((6-chloroquinazolin-2-yl)amino)piperidine-1-carbonyl)phenyl)propionamide], for which the IC50 against CDK12 wt/CycK, at CDK2/CycA2 and against CDK7/CycH/MAT1 was 30000 to 100000 nM throughout.
Take `C=CC(=O)Nc1ccc(C(=O)N2CCC[C@@H](Nc3ncc4ccc(OC)cc4n3)C2)cc1` [Example 6, (R)-N-(4-(3-((7-methoxyquinazolin-2-yl)amino)piperidine-1-carbonyl)phenyl)acrylamide]: the IC50 (commonly the concentration that inhibits the measured activity by half) against CDK12 wt/CycK lay in the range of 10000 to 30000 nM; at CDK2/CycA2, 30000 to 100000 nM; on CDK7/CycH/MAT1, 30000 to 100000 nM.
`C=CC(=O)Nc1ccc(C(=O)N2CC[C@@H](Nc3ncc4cc(F)ccc4n3)C2)cc1C` [Example 92, (R)—N-(4-(3-((6-fluoroquinazolin-2-yl)amino)pyrrolidine-1-carbonyl)-2-methylphenyl)acrylamide]: the IC50 at CDK12 wt/CycK was no more than 100 nM; against CDK2/CycA2, 1000 to 10000 nM; against CDK7/CycH/MAT1 it was 1000 to 10000 nM.
For the compound `CCC(=O)Nc1ccc(C(=O)N2CC[C@@H](Nc3ncc4ccc(S(C)(=O)=O)cc4n3)C2)cc1` [Example 52, (R)—N-(4-(3-((7-(methylsulfonyl)quinazolin-2-yl)amino)pyrrolidine-1-carbonyl)phenyl)propionamide], the IC50 fell in the range of 100 to 1000 nM against CDK12 wt/CycK, 100 to 1000 nM at CDK2/CycA2 and 1000 to 10000 nM against CDK7/CycH/MAT1.
Turning to `CCC(=O)Nc1ccc(C(=O)N2CC[C@@H](Nc3ncc4cc(C)ccc4n3)C2)cc1` [Example 49, (R)—N-(4-(3-((6-methylquinazolin-2-yl)amino)pyrrolidine-1-carbonyl)phenyl)propionamide], the IC50 at CDK12 wt/CycK, against CDK2/CycA2 and against CDK7/CycH/MAT1 was 1000 to 10000 nM in each case.
On to `C=CC(=O)Nc1cccc(C(=O)N2CC[C@@H](Nc3ncc4ccccc4n3)C2)c1` [Example 87, (R)—N-(3-(3-(quinazolin-2-ylamino)pyrrolidine-1-carbonyl)phenyl)acrylamide], for which the IC50 against CDK12 wt/CycK, against CDK2/CycA2 and against CDK7/CycH/MAT1 was 100 to 1000 nM throughout.
For `CC#CC(=O)Nc1ccc(C(=O)N2CC[C@@H](Nc3ncc4ccccc4n3)C2)cc1` [Example 77, (R)—N-(4-(3-(quinazolin-2-ylamino)pyrrolidine-1-carbonyl)phenyl)but-2-ynamide], the IC50 at CDK12 wt/CycK was no more than 100 nM; against CDK2/CycA2 it was 100 to 1000 nM; on CDK7/CycH/MAT1 it was 100 to 1000 nM.
Take `CCC(=O)Nc1ccc(C(=O)N2CC[C@@H](Nc3ncc4ccc(C(N)=O)cc4n3)C2)cc1` [Example 57, (R)-2-((1-(4-propionamidobenzoyl)pyrrolidin-3-yl)amino)quinazoline-7-carboxamide]: the IC50 at CDK12 wt/CycK, against CDK2/CycA2 and against CDK7/CycH/MAT1 was no more than 100 nM throughout.
As to `C=CS(=O)(=O)Nc1ccc(C(=O)N2CC[C@@H](Nc3ncc4ccccc4n3)C2)cc1` [Example 95, (R)—N-(4-(3-(quinazolin-2-ylamino)pyrrolidine-1-carbonyl)phenyl)ethenesulfonamide], the values for the half-maximal inhibitory concentration (IC50) against CDK12 wt/CycK, at CDK2/CycA2 and on CDK7/CycH/MAT1 were 100 to 1000 nM, 1000 to 10000 nM and 100 to 1000 nM, respectively.
For the compound `CCC(=O)Nc1ccc(C(=O)N2CC[C@@H](Nc3ncc4ccc(C(=O)O)cc4n3)C2)cc1` [Example 56, (R)-2-((1-(4-propionamidobenzoyl)pyrrolidin-3-yl)amino)quinazoline-7-carboxylic Acid], the half-inhibitory concentration (IC50) against CDK12 wt/CycK was no more than 100 nM; on CDK2/CycA2, no more than 100 nM; at CDK7/CycH/MAT1 it was 100 to 1000 nM.
For the compound `CCC(=O)Nc1ccc(C(=O)N2CC[C@@H](Nc3cc4ccccc4cn3)C2)cc1` [Example 45, (R)—N-(4-(3-(isoquinolin-3-ylamino)pyrrolidine-1-carbonyl)phenyl)propionamide], the results for the concentration for half-maximal inhibition (IC50) against CDK12 wt/CycK, on CDK2/CycA2 and at CDK7/CycH/MAT1 were 100 to 1000 nM, 1000 to 10000 nM and 1000 to 10000 nM, respectively.
`C=CC(=O)Nc1ccc(C(=O)N2CCC[C@@H](Nc3ncc4cc(OC)ccc4n3)C2)cc1` [Example 7, (R)-N-(4-(3-((6-methoxyquinazolin-2-yl)amino)piperidine-1-carbonyl)phenyl)acrylamide]: the 50% inhibitory concentration (IC50) against CDK12 wt/CycK, against CDK2/CycA2 and on CDK7/CycH/MAT1 was 30000 to 100000 nM in each case.
For `C=CC(=O)Nc1ccc(C(=O)N2CC[C@@H](Nc3ncc4ccc(C(=O)N(C)C)cc4n3)C2)cc1` [Example 41, (R)-2-((1-(4-acrylamidobenzoyl)pyrrolidin-3-yl)amino)-N,N-dimethylquinazoline-7-carboxamide], the IC50 against CDK12 wt/CycK was no more than 100 nM; on CDK2/CycA2, 100 to 1000 nM; at CDK7/CycH/MAT1 it was 1000 to 10000 nM.
In the same order, the values of `CCC(=O)Nc1ccc(C(=O)N2CC[C@@H](Nc3ncc4cc(F)ccc4n3)C2)cc1` [Example 46, (R)—N-(4-(3-((6-fluoroquinazolin-2-yl)amino)pyrrolidine-1-carbonyl)phenyl)propionamide] are 100 to 1000 nM, 1000 to 10000 nM and 1000 to 10000 nM.
Regarding `C=CC(=O)Nc1ccc(C(=O)N2CC(Nc3ncc4ccccc4n3)C2)cc1` [Example 64, N-(4-(3-(quinazolin-2-ylamino)azetidine-1-carbonyl)phenyl)acrylamide], the 50% inhibitory concentration (IC50) was in the range of 1000 to 10000 nM at CDK12 wt/CycK, 1000 to 10000 nM at CDK2/CycA2 and 10000 to 30000 nM against CDK7/CycH/MAT1.
As for `CN(C)C/C=C/C(=O)Nc1ccc(C(=O)N2CC[C@@H](Nc3ncc4ccccc4n3)C2)cc1Cl` [Example 82, (R,E)-N-(2-chloro-4-(3-(quinazolin-2-ylamino)pyrrolidine-1-carbonyl)phenyl)-4-(dimethylamino)but-2-enamide], the IC50 against CDK12 wt/CycK was 100 to 1000 nM; against CDK2/CycA2, 1000 to 10000 nM; at CDK7/CycH/MAT1, 100 to 1000 nM.
`CCC(=O)Nc1ccc(C(=O)N2CC[C@@H](Nc3ncc4cc(OC)ccc4n3)C2)cc1` [Example 48, (R)—N-(4-(3-((6-methoxyquinazolin-2-yl)amino)pyrrolidine-1-carbonyl)phenyl)propionamide]: the IC50 lay within 1000 to 10000 nM on CDK12 wt/CycK, 10000 to 30000 nM at CDK2/CycA2 and 30000 to 100000 nM at CDK7/CycH/MAT1.
For the compound `C=CC(=O)N1CCOc2cc(C(=O)N3CC[C@@H](Nc4ncc5ccccc5n4)C3)ccc21` [Example 80, (R)-1-(7-(3-(quinazolin-2-ylamino)pyrrolidine-1-carbonyl)-2H-benzo[b][1,4]oxazin-4(3H)-yl)prop-2-en-1-one], the IC50 on CDK12 wt/CycK is no more than 100 nM; against CDK2/CycA2, 100 to 1000 nM; against CDK7/CycH/MAT1 it was 100 to 1000 nM.
As to `CN(C)C/C=C/C(=O)Nc1ccc(C(=O)N2CC[C@@H](Nc3ncc4ccccc4n3)C2)cc1` [Example 65, (R,E)-4-(dimethylamino)-N-(4-(3-(quinazolin-2-ylamino)pyrrolidine-1-carbonyl)phenyl)but-2-enamide], the IC50 against CDK12 wt/CycK, against CDK2/CycA2 and on CDK7/CycH/MAT1 was 100 to 1000 nM throughout.
With `C=CC(=O)Nc1ccc(C(=O)N2CC[C@@H](Nc3ncc4cc(C)ccc4n3)C2)cc1` [Example 30, (R)-N-(4-(3-((6-methylquinazolin-2-yl)amino)pyrrolidine-1-carbonyl)phenyl)acrylamide], the IC50 was 100 to 1000 nM on CDK12 wt/CycK, 1000 to 10000 nM on CDK2/CycA2 and 1000 to 10000 nM at CDK7/CycH/MAT1.
With `C=CC(=O)Nc1ccc(C(=O)N2CC[C@@H](Nc3ncc4ccc(C(=O)NC)cc4n3)C2)cc1` [Example 40, (R)-2-((1-(4-acrylamidobenzoyl)pyrrolidin-3-yl)amino)-N-methylquinazoline-7-carboxamide], the figures for the IC50 on CDK12 wt/CycK, against CDK2/CycA2 and at CDK7/CycH/MAT1 were no more than 100 nM, no more than 100 nM and 100 to 1000 nM, respectively.
On to `C=CC(=O)Nc1ccc(C(=O)N2CCC[C@@H](Nc3ncc4ccc(C(N)=O)cc4n3)C2)cc1` [Example 13, (R)-2-((1-(4-acrylamidobenzoyl)piperidin-3-yl)amino)quinazoline-7-carboxamide], for which the concentration for half-maximal inhibition (IC50) against CDK12 wt/CycK lay in the range of 100 to 1000 nM; at CDK2/CycA2 it was 1000 to 10000 nM; on CDK7/CycH/MAT1, 10000 to 30000 nM.
